Assay results from PMC8366453, “Efficacy of RyR2 inhibitor EL20 in induced pluripotent stem cell‐derived cardiomyocytes from a patient with catecholaminergic polymorphic ventricular tachycardia” (Journal of Cellular and Molecular Medicine, 2021).

Biological target: cardiac ryanodine receptor type‐2 (RyR2) (Homo sapiens, UniProt Q92736, R176Q)
Test: Confocal Ca2+ spark frequency dose-response in paced CPVT patient iPSC-derived cardiomyocytes (heterozygous R176Q)
Format: cell-based

Sequence of cardiac ryanodine receptor type‐2 (RyR2) (Q92736 whole entry R176Q): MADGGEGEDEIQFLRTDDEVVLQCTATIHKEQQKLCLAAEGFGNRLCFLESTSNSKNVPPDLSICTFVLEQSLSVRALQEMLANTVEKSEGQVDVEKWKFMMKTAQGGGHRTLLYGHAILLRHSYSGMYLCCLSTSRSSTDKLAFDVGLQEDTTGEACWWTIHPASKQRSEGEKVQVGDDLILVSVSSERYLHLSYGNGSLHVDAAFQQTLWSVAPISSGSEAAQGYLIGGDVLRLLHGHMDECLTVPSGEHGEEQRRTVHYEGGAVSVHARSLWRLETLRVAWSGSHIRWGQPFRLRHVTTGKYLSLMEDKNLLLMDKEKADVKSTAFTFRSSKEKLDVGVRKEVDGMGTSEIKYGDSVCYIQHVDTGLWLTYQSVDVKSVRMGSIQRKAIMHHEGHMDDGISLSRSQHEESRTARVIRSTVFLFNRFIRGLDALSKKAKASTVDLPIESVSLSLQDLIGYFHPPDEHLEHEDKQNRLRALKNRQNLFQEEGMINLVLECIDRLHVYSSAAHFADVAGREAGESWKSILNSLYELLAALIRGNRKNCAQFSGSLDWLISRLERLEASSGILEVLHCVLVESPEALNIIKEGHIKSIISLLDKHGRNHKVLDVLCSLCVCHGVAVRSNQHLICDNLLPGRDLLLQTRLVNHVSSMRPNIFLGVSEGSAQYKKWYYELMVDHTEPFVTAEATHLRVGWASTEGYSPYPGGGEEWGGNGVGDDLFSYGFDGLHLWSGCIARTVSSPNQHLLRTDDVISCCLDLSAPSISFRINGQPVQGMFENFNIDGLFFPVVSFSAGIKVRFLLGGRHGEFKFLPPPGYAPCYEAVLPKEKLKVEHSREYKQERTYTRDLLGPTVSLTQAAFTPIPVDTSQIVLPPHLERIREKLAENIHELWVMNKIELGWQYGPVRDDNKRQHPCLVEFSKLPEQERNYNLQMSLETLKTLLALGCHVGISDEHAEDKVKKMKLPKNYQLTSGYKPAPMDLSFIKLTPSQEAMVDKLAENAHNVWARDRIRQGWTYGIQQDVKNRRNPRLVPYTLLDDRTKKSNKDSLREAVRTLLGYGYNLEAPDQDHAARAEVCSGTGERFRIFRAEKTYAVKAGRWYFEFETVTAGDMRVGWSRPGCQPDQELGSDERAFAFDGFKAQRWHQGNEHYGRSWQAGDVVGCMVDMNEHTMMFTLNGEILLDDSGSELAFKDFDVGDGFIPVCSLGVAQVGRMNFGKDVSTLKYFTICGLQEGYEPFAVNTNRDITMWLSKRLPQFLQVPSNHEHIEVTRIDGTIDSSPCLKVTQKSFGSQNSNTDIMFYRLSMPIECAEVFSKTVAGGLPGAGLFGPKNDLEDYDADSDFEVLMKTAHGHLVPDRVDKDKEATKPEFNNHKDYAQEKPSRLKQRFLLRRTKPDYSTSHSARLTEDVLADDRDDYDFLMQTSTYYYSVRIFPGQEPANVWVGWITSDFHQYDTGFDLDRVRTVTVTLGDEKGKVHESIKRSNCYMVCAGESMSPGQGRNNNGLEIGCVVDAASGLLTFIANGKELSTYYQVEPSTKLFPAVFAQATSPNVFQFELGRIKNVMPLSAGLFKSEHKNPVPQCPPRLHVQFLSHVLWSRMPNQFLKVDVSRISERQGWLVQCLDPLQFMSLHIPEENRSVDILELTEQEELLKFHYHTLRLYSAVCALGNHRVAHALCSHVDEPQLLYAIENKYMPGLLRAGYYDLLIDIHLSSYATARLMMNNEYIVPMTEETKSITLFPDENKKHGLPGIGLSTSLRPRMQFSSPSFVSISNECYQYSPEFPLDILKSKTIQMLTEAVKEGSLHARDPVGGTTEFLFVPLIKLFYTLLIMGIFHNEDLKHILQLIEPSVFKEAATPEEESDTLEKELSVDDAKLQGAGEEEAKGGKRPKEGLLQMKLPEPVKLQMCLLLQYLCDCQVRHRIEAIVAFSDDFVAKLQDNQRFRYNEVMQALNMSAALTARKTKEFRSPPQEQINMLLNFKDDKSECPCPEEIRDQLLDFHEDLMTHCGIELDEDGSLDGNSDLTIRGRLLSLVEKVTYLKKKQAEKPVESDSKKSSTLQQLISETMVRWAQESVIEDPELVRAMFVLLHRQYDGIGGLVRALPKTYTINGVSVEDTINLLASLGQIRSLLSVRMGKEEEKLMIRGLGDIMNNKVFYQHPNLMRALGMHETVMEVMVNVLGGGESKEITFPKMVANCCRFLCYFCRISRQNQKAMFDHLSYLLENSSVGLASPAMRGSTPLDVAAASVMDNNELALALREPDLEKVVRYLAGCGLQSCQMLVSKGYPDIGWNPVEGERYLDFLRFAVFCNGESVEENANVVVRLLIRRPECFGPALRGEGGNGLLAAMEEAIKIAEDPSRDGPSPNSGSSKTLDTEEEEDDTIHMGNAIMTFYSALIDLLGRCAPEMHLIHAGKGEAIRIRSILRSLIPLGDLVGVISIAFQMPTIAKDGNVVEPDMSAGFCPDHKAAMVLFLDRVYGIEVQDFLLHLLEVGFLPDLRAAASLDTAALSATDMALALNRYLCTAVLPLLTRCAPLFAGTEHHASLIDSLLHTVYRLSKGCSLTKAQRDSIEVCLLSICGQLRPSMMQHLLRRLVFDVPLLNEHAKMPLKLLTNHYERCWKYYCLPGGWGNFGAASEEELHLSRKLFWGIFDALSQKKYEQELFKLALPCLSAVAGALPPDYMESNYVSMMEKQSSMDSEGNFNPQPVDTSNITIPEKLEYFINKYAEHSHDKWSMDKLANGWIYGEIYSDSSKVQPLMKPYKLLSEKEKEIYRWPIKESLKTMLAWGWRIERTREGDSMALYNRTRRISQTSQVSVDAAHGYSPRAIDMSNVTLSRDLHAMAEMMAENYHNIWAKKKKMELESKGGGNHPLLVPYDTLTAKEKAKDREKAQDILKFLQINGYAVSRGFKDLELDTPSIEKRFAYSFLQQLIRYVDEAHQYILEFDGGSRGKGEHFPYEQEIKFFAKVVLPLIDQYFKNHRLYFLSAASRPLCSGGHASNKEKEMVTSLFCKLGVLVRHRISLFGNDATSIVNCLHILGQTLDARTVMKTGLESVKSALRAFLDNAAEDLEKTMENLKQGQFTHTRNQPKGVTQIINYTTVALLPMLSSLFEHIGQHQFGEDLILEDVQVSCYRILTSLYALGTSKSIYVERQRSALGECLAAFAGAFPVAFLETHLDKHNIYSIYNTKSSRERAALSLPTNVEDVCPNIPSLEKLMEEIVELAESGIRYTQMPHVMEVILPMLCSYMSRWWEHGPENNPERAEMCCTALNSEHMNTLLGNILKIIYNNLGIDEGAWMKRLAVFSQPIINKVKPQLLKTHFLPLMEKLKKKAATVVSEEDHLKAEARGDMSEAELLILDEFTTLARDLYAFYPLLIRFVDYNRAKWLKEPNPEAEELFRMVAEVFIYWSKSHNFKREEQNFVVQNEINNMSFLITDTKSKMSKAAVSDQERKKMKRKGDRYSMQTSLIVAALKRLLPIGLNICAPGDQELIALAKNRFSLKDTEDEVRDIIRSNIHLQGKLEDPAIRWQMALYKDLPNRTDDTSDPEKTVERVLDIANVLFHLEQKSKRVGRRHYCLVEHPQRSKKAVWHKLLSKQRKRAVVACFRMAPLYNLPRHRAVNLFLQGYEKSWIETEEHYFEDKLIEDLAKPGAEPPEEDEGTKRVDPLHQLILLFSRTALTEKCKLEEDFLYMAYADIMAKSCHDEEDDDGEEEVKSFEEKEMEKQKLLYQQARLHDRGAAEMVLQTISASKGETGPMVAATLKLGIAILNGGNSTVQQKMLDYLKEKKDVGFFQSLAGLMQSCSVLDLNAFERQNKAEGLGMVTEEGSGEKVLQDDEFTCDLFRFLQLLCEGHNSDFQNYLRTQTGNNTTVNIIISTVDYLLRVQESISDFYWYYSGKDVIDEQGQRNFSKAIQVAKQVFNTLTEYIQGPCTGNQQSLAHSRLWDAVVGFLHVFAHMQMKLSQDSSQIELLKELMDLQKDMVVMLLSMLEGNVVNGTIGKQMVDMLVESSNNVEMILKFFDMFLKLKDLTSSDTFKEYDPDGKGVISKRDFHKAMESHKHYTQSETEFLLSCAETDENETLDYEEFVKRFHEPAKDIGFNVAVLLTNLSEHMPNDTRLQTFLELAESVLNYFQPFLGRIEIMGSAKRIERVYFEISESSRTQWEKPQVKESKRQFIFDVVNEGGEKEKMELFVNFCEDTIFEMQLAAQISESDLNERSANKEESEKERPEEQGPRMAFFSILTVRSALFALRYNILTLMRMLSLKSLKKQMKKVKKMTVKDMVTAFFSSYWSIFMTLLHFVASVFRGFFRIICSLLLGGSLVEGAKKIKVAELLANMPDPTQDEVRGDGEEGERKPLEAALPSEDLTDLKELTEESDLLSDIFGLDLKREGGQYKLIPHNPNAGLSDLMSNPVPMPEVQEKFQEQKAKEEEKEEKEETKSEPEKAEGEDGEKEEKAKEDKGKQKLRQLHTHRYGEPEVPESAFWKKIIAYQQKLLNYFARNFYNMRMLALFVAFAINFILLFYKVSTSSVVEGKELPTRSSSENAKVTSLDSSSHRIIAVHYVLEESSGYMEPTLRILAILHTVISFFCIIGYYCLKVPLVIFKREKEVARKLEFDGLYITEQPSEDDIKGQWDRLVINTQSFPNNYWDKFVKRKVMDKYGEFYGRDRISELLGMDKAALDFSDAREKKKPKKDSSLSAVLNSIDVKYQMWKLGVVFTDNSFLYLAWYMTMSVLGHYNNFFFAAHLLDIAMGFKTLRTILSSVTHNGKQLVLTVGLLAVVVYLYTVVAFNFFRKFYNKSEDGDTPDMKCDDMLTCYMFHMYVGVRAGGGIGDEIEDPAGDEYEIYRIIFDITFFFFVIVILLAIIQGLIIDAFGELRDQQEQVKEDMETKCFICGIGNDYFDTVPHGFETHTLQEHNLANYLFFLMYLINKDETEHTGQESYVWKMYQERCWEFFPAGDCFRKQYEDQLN

IC50: 82 nM
Compound: CCCCNc1ccc(C(=O)OCCN(CC)CC)c(OC)c1 [EL20]
